Our source for the remaining binding values is patent US12479847B2 (DANA-FARBER CANCER INSTITUTE, INC., priority 2019, dated 2025).

Test in all cases: KINOMEscan (ScanMAX) kinase profiling
Holding throughout (type): binding

Test [1] deals with T1, panel of 468 kinases (Homo sapiens, UniProt Q6ZN16).
T1 construct: purchased KINOMEscan (ScanMAX) service
T1 sequence (Q6ZN16 1-1313): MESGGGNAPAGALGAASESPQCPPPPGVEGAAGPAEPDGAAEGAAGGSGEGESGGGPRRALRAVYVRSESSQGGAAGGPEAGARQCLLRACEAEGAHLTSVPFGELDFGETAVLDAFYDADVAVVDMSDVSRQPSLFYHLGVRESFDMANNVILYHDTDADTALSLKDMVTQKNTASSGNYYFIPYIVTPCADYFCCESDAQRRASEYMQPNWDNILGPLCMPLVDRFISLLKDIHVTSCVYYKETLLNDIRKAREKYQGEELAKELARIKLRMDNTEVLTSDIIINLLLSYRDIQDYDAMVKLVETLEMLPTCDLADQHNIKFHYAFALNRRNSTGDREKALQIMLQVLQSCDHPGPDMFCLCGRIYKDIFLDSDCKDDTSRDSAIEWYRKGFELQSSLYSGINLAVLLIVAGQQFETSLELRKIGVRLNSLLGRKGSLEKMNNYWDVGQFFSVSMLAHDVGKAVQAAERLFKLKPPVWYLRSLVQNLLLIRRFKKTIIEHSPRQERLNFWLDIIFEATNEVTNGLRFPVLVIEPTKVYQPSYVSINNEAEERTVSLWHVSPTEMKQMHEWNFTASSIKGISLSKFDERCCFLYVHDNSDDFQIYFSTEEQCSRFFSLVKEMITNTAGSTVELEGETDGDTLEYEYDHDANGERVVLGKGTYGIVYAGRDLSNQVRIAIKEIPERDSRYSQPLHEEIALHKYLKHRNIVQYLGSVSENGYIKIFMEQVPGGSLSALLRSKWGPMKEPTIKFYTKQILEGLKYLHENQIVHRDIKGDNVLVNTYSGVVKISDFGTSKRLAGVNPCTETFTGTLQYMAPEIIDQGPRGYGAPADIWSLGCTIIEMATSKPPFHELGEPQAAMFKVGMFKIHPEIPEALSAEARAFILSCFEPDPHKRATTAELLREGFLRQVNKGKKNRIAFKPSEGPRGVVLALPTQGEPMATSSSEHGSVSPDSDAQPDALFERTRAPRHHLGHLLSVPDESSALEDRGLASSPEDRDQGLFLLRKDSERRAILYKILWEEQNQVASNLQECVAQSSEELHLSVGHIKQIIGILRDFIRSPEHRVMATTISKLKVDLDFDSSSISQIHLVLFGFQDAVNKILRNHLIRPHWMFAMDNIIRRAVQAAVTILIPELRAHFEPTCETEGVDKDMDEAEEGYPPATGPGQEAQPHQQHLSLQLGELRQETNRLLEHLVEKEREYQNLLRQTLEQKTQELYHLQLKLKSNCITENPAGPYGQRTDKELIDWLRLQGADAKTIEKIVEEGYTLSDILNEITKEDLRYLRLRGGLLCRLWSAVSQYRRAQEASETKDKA
The settings on record: MAP3K15; 1 μM; read-out: % control.

Test [2] deals with T2, panel of 468 kinases (Homo sapiens, UniProt Q96D53).
T2 construct: purchased KINOMEscan (ScanMAX) service
T2 sequence (Q96D53 1-544): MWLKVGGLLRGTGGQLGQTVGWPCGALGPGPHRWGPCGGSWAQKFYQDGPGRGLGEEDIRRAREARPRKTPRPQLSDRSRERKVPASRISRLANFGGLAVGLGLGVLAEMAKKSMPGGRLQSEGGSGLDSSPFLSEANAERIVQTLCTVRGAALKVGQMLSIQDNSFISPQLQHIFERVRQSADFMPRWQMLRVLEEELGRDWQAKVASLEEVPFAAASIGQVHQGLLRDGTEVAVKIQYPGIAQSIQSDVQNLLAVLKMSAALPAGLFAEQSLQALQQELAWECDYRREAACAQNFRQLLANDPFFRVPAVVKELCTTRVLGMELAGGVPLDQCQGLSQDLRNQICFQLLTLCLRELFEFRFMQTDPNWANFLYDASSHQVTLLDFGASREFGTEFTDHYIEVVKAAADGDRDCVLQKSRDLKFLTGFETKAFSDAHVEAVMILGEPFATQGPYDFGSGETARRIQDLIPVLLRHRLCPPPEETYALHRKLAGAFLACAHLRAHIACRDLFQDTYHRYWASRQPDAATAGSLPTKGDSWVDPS
The settings on record: ADCK4; 1 μM; read-out: % control.

For test [3], the target named is T3, panel of 468 kinases (Homo sapiens, UniProt P51817).
T3 construct: purchased KINOMEscan (ScanMAX) service
T3 sequence (P51817 1-358): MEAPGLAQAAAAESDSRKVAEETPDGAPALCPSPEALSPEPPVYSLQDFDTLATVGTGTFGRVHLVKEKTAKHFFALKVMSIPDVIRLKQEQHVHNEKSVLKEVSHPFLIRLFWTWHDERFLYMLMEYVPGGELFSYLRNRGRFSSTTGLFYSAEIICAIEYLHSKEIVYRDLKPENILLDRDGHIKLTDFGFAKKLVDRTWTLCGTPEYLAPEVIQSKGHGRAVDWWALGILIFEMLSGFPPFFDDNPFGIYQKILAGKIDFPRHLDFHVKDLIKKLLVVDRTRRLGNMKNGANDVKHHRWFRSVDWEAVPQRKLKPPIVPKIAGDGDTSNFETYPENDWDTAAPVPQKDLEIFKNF
The note with it: PRKX; 1 μM; read-out: % control.

Test [4] deals with T4, panel of 468 kinases (Homo sapiens, UniProt O75914).
T4 construct: purchased KINOMEscan (ScanMAX) service
The note with it: PAK3; 1 μM; read-out: % control.

The target of test [5] is T5, panel of 468 kinases (Homo sapiens, UniProt P07949).
T5 construct: purchased KINOMEscan (ScanMAX) service
The note with it: RET; 1 μM; read-out: % control.

The target of test [6] is T6, panel of 468 kinases (Homo sapiens, UniProt P54764).
T6 construct: purchased KINOMEscan (ScanMAX) service
The note with it: EPHA4; 1 μM; read-out: % control.

Test [7] has as its target T7, panel of 468 kinases (Homo sapiens, UniProt P31751).
T7 construct: purchased KINOMEscan (ScanMAX) service
The settings on record: AKT2; 1 μM; read-out: % control.

T4 sequence (O75914 whole entry): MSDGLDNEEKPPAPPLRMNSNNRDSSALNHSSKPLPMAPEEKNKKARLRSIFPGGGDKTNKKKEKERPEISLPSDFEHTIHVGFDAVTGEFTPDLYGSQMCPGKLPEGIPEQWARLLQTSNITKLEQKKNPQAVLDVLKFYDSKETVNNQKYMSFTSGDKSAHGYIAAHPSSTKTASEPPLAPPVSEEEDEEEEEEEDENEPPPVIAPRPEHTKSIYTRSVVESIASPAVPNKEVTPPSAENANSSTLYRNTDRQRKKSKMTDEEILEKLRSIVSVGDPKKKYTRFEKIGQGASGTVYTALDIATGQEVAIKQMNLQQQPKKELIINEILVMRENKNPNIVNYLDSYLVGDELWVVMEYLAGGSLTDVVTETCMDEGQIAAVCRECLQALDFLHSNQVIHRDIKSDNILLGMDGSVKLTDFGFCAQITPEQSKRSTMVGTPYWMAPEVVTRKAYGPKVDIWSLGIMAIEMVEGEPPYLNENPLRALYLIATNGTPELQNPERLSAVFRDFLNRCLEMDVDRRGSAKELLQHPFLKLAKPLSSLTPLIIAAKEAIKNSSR
T5 sequence (P07949 29-1114): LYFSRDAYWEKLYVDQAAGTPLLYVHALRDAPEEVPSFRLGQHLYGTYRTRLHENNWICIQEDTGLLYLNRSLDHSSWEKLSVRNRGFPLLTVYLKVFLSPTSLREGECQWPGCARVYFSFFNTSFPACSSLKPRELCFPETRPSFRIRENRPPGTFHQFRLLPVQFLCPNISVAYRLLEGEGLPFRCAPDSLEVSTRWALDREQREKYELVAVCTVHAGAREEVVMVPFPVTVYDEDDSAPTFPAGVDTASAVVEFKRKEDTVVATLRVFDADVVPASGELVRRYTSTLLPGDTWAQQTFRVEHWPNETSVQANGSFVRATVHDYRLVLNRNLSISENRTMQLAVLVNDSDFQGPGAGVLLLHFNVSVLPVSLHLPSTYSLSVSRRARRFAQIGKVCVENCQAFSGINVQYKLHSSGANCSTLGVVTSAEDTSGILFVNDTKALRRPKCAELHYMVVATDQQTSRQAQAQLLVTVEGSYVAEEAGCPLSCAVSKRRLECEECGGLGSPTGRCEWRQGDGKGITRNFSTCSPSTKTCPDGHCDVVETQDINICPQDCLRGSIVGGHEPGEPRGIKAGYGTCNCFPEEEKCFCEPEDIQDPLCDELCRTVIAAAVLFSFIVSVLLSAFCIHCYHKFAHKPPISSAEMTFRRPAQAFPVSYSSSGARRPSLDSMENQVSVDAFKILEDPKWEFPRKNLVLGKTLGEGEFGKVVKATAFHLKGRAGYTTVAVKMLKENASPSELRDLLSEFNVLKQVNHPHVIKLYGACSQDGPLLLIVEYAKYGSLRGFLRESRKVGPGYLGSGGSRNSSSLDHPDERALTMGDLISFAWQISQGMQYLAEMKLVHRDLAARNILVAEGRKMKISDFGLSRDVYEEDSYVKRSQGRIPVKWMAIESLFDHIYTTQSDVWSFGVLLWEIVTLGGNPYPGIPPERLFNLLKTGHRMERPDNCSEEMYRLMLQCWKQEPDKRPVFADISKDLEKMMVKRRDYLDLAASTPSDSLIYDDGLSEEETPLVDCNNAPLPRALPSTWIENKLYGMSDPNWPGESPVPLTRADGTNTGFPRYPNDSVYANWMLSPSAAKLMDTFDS
T7 sequence (P31751 whole entry): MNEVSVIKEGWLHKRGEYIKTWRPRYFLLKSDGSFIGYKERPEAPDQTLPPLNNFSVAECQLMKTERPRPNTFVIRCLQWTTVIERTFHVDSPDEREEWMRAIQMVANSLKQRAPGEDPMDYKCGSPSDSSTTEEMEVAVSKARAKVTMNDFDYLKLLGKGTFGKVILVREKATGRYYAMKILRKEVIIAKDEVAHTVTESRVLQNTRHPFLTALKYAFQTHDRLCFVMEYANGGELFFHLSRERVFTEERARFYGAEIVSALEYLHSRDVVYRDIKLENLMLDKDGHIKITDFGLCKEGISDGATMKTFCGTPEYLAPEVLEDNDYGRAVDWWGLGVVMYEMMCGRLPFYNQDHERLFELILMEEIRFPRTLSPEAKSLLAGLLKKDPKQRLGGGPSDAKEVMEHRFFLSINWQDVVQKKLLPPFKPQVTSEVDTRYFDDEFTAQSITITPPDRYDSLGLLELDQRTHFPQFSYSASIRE
T6 sequence (P54764 20-986): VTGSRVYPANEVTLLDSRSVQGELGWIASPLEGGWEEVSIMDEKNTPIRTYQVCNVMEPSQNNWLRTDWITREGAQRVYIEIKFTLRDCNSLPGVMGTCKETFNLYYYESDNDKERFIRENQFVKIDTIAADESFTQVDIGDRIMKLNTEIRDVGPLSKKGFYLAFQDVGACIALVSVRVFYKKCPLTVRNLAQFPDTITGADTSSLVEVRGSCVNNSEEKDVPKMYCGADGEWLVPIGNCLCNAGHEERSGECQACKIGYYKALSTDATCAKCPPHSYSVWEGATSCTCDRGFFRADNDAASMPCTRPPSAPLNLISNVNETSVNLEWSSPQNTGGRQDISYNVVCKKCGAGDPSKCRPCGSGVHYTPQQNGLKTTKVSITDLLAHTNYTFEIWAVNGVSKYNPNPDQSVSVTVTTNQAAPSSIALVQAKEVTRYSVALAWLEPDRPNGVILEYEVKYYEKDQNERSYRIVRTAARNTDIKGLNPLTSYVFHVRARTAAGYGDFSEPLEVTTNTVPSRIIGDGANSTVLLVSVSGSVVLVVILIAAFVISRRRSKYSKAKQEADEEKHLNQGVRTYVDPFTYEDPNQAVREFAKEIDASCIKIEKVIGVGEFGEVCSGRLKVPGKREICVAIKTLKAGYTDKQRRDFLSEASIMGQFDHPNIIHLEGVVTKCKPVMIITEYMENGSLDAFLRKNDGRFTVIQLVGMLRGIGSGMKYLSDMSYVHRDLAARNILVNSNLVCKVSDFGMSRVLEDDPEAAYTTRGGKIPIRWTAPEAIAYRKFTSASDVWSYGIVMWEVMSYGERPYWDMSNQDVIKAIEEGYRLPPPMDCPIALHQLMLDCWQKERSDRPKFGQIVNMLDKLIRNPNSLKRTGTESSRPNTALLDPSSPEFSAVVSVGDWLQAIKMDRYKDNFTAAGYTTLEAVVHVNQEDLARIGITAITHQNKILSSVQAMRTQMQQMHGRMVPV

As for `CNc1nc(Nc2ccc(C(=O)N3CCC(N4CCOCC4)CC3)c3c2OCO3)nc2[nH]cc(Cl)c12` [Compound 75, (7-((5-chloro-4-(methylamino)-7H-pyrrolo[2,3-d]pyrimidin-2-yl)amino)benzo[d][1,3]dioxol-4-yl)(4-morpholinopiperidin-1-yl)methanone], the remaining binding at 1 µM came out at 39% in test [1]; 100% in test [2]; 92% in test [3]; 97% in test [4]; 100% in test [5]; 92% in test [6]. The remaining binding at 1 µM in test [7] was determined as 100%.
As for `CNc1nc(Nc2ccc(P3(=O)CCN(C4CCOCC4)CC3)cc2OC)nc2[nH]cc(Cl)c12` [Compound 77, 4-(4-((5-chloro-4-(methylamino)-7H-pyrrolo[2,3-d]pyrimidin-2-yl)amino)-3-methoxyphenyl)-1-(tetrahydro-2H-pyran-4-yl)-1,4-azaphosphinane 4-oxide], the remaining binding at 1 µM turned out to be 46% in test [1]; 81% in test [2]; 96% in test [3]; 91% in test [4]; 100% in test [5]; 79% in test [6]. Besides, in test [7], the remaining binding at 1 µM stood at 100%.
As to `CNc1nc(Nc2ccc(S(=O)(=O)N3CCC(N4CCOCC4)CC3)cc2OC)nc2[nH]cc(Cl)c12` [Compound 12, 5-chloro-N2-(2-methoxy-4-((4-morpholinopiperidin-1-yl)sulfonyl)phenyl)-N4-methyl-7H-pyrrolo[2,3-d]pyrimidine-2,4-diamine], the remaining binding at 1 µM came out at 75% in test [1]; 100% in test [2]; 87% in test [3]; 100% in test [4]; 100% in test [5]; 86% in test [6]. Besides, the remaining binding at 1 µM in test [7] came to 100%.
